Test results reported in patent publication US8691855B2, “Compounds, isomer thereof, or pharmaceutically acceptable salts thereof as vanilloid receptor antagonist and pharmaceutical compositions containing the same” (Amorepacific Corporation, priority 2008, dated 2014).
pIC50: −log10 of the molar value.

How the values were obtained:
vanilloid receptor = target: T1, vanilloid receptor (Rattus norvegicus, UniProt O35433); experiment: 45Ca influx test (antagonist calcium uptake test) in rat DRG neurons stimulated with capsaicin; format: cell-based; details: neonatal SD rat DRG neurons; capsaicin 0.5 μM; 45Ca
T1 construct: DRG nerve cells from the primary culture of 2 days were equilibrated; endogenous in cells; host or cells: primary culture of dorsal root ganglion neurons from neonatal SD rats
Outline: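 Neonatal SD rat DRG neurons, cultured 2 days with NGF 200 ng/ml, exposed to test compound plus 0.5 μM capsaicin and 45Ca (10 μCi/ml) in HEPES-buffered Ca/Mg-free HBSS, pH 7.4, 10 min at room temperature. Influx counted by scintillation; activity as percent inhibition of the 0.5 μM capsaicin maximal response.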

Male ICR mice = experiment: Analgesic activity test: mouse writhing test by inducing with phenyl-p-quinone; format: in vivo; details: po, p.o., read-out: Analgesic effect (% Inhibition)
Method: 2. Analgesic Activity Test: Mouse Writhing Test by Inducing with Phenyl-p-quinone Male ICR mice (mean body weight 25 g) were maintained in a controlled lighting environment (12 h on/12 h off) for experiment. Animals received an intraperitoneal injection of 0.3 ml of the chemical irritant phenyl-p-quinone (dissolved in saline containing 5% ethanol to be a close of 4.5 mg/kg) and 6 mins later, the number of abdominal constrictions was counted in the subsequent 6 mins period. Animals (10 animals/group) received 0.2 ml of test compounds solution in vehicle of ethanol/Tween 80/saline (Oct. 10, 1980) intraperitoneally 30 min before the injection of phenyl-p-quinone. In the case of oral administration, 0.2 ml of test compounds solution in vehicle of ethanol/Tween 80/saline (5/5/90) were administered 54 min prior to the 0.2 ml of 0.02% phenyl-p-quinone injection. A reduction in the number of writhes responding to the test drug compound relative to the number responding in saline control group was considered to be indicative of an analgesic effect. Analgesic effect was calculated by % inhibition equation (% inhibition=(C-T)/C×100), wherein C and T represent the number of writhes in control and compound-treated group, respectively.

T1 sequence (O35433 whole entry): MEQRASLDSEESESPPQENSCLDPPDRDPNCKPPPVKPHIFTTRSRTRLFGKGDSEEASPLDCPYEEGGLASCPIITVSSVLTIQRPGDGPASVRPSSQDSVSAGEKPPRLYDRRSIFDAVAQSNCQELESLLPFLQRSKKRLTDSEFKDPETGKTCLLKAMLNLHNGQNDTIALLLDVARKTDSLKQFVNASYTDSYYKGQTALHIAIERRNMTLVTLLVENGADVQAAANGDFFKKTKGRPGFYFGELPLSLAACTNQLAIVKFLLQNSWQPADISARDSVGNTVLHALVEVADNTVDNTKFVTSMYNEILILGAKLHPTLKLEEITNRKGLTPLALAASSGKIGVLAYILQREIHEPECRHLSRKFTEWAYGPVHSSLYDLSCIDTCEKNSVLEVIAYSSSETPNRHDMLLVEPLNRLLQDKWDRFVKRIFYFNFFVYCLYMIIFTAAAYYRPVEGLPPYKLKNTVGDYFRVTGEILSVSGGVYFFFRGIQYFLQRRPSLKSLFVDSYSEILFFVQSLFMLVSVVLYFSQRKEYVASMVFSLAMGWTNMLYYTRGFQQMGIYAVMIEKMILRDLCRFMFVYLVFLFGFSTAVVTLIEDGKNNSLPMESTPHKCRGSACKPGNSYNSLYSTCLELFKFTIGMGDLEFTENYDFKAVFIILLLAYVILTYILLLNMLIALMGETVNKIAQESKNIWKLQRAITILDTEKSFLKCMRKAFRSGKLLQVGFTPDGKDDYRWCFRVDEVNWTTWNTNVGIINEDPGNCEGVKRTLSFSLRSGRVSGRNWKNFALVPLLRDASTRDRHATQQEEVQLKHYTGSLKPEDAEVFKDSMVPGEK

Row | SMILES | pIC50 (vanilloid receptor) | inhibition in vivo at 3 mg/kg (Male ICR mice) | inhibition in vivo at 0.3 mg/kg (Male ICR mice)
1 | CC1CCc2c(Oc3nc(C(=O)N[C@H](C)c4cc(F)c(NS(C)(=O)=O)c(F)c4)co3)cccc21 (stereo partly shown) [Example 30, 2-(1-Methyl-indan-4-yloxy)-oxazole-4-carboxylic acid [1-(3,5-difluoro-4-methanesulfonylamino-phenyl)-ethyl]-amide] | 7.30 | 16% | 
2 | C[C@@H](NC(=O)c1coc(Oc2cccc(C3CC3)c2)n1)c1cc(F)c(NS(C)(=O)=O)c(F)c1 [Example 32, 2-(3-Cyclopropyl-phenoxy)-oxazole-4-carboxylic acid [1-(3,5-difluoro-4-methanesulfonylamino-phenyl)-ethyl]-amide] | 6.55 | 32% | 
3 | CC(c1cccc(Oc2nc(C(=O)N[C@H](C)c3cc(F)c(NS(C)(=O)=O)c(F)c3)co2)c1)C(F)(F)F (stereo partly shown) [Example 35, 2-[3-(2,2,2-Trifluoro-1-methyl-ethyl)-phenoxy]-oxazole-4-carboxylic acid [1-(3,5-difluoro-4-methanesulfonylamino-phenyl)-ethyl]-amide] | 5.74 |  | 29%
4 | CCCc1c(Oc2nc(C(=O)N[C@H](C)c3cc(F)c(NS(C)(=O)=O)c(F)c3)co2)cccc1C(F)(F)F [Example 42, 2-(2-Propyl-3-trifluoromethyl-phenoxy)-oxazole-4-carboxylic acid [1-(3,5-difluoro-4-methanesulfonylamino-phenyl)-ethyl]-amide] | 6.89 |  | 30%
5 | C[C@@H](NC(=O)c1coc(Oc2cccc(C(F)(F)F)c2C2CC2)n1)c1cc(F)c(NS(C)(=O)=O)c(F)c1 [Example 46, 2-(2-Cyclopropyl-3-trifluoromethyl-phenoxy)-oxazole-4-carboxylic acid [1-(3,5-difluoro-4-methanesulfonylamino-phenyl)-ethyl]-amide] | 6.37 | 53% | 
6 | C[C@@H](NC(=O)c1coc(-c2cccc(C(F)(F)F)c2)n1)c1cc(F)c(NS(C)(=O)=O)c(F)c1 [Example 67, 2-(3-Trifluoromethyl-phenyl)-oxazole-4-carboxylic acid [1-(3,5-difluoro-4-methanesulfonylamino-phenyl)-ethyl]-amide] | 6.44 | 43% | 
7 | CC(C)c1cccc(-c2nc(C(=O)N[C@H](C)c3cc(F)c(NS(C)(=O)=O)c(F)c3)co2)c1 [Example 69, 2-(3-Isopropyl-phenyl)-oxazole-4-carboxylic acid [1-(3,5-difluoro-4-methanesulfonylamino-phenyl)-ethyl]-amide] | 6.80 |  | 35%
8 | CC(C)c1cccc(-c2nc(C(=O)N[C@H](C)c3cc(F)c(NS(C)(=O)=O)c(F)c3)cs2)c1 [Example 80, 2-(3-Isopropyl-phenyl)-thiazole-4-carboxylic acid [1-(3,5-difluoro-4-methanesulfonylamino-phenyl)-ethyl]-amide] | 7.52 | 22% | 
9 | C[C@@H](NC(=O)c1coc(-c2cccc(C3CC3)c2)n1)c1cc(F)c(NS(C)(=O)=O)c(F)c1 [Example 100, 2-(3-Cyclopropyl-phenyl)-oxazole-4-carboxylic acid [1-(3,5-difluoro-4-methanesulfonylamino-phenyl)-ethyl]-amide] | 7.32 | 35% | 

Further lines, with some results ahead:

Row | pIC50 (vanilloid receptor) | SMILES | inhibition in vivo at 3 mg/kg (Male ICR mice) | inhibition in vivo at 0.3 mg/kg (Male ICR mice)
10 | 6.85 | C[C@@H](NC(=O)c1coc(-c2cc(C(F)(F)F)cc(C(F)(F)F)c2)n1)c1cc(F)c(NS(C)(=O)=O)c(F)c1 [Example 87, 2-(3,5-Bis-trifluoromethyl-phenyl)-oxazole-4-carboxylic acid [1-(3,5-difluoro-4-methanesulfonylamino-phenyl)-ethyl]-amide] | 59% | 
11 | 6.68 | C[C@@H](NC(=O)c1coc(-c2ccc(Cl)c(C(F)(F)F)c2)n1)c1cc(F)c(NS(C)(=O)=O)c(F)c1 [Example 91, 2-(4-Chloro-3-trifluoromethyl-phenyl)-oxazole-4-carboxylic acid [1-(3,5-difluoro-4-methanesulfonylamino-phenyl)-ethyl]-amide] | 25% | 
12 | 6.04 | C[C@@H](NC(=O)c1csc(-c2cc(C(F)(F)F)cc(C(F)(F)F)c2)n1)c1cc(F)c(NS(C)(=O)=O)c(F)c1 [Example 93, 2-(3,5-Bis-trifluoromethyl-phenyl)-thiazole-4-carboxylic acid [1-(3,5-difluoro-4-methanesulfonylamino-phenyl)-ethyl]-amide] | 41% | 
13 | 6.44 | C[C@@H](NC(=O)c1csc(-c2cccc(C(F)(F)F)c2)n1)c1cc(F)c(NS(C)(=O)=O)c(F)c1 [Example 94, 2-(3-Trifluoromethyl-phenyl)-thiazole-4-carboxylic acid [1-(3,5-difluoro-4-methanesulfonylamino-phenyl)-ethyl]-amide] | 46% | 
14 | 7.14 | C[C@@H](NC(=O)c1csc(-c2cccc(C3CC3)c2)n1)c1cc(F)c(NS(C)(=O)=O)c(F)c1 [Example 101, 2-(3-Cyclopropyl-phenyl)-thiazole-4-carboxylic acid [1-(3,5-difluoro-4-methanesulfonylamino-phenyl)-ethyl]-amide] | 33% | 
15 | 7.00 | C[C@@H](NC(=O)c1ccc(-c2cccc(C3CC3)c2)o1)c1cc(F)c(NS(C)(=O)=O)c(F)c1 [Example 102, 5-(3-Cyclopropyl-phenyl)-furan-2-carboxylic acid [1-(3,5-difluoro-4-methanesulfonylamino-phenyl)-ethyl]-amide] | 58% | 
16 | 6.17 | CS(=O)(=O)Nc1ccc(CNC(=O)c2ccc(-c3ccccc3C(F)(F)F)o2)cc1F [Example 117, 5-(2-Trifluoromethyl-phenyl)-furan-2-carboxylic acid 3-fluoro-4-methanesulfonylamino-benzylamide] | 39% | 
17 | 6.43 | CS(=O)(=O)Nc1ccc(CNC(=O)c2ccc(-c3cccc(C(F)(F)F)c3)o2)cc1F [Example 118, 5-(3-Trifluoromethyl-phenyl)-furan-2-carboxylic acid 3-fluoro-4-methanesulfonylamino-benzylamide] | 42% | 
18 | 6.89 | C[C@@H](NC(=O)c1ccc(-c2ccccc2C(F)(F)F)o1)c1cc(F)c(NS(C)(=O)=O)c(F)c1 [Example 119, 5-(2-Trifluoromethyl-phenyl)-furan-2-carboxylic acid [1-(3,5-difluoro-4-methanesulfonylamino-phenyl)-ethyl]-amide] | 38% | 
19 | 7.19 | C[C@@H](NC(=O)c1ccc(-c2cccc(C(F)(F)F)c2)o1)c1cc(F)c(NS(C)(=O)=O)c(F)c1 [Example 120, (R)-5-(3-Trifluoromethyl-phenyl)-furan-2-carboxylic acid [1-(3,5-difluoro-4-methanesulfonylamino-phenyl)-ethyl]-amide] | 60% | 
20 | 7.35 | C[C@@H](NC(=O)c1ccc(-c2cc(C(F)(F)F)cc(C(F)(F)F)c2)o1)c1cc(F)c(NS(C)(=O)=O)c(F)c1 [Example 123, 5-(3,5-Bis-trifluoromethyl-phenyl)-furan-2-carboxylic acid [1-(3,5-difluoro-4-methanesulfonylamino-phenyl)-ethyl]-amide] |  | 21%
